Experimental findings from US10793526B2, “Hydantoin derivative compounds, methods of use and methods of treatment” (University of South Florida, priority 2016, dated 2020) are described below.

Test [1] deals with methicillin-resistant S. epidermidis (MRSE, RP62A). Kind of test: Minimum inhibitory concentration (MIC) assay, MRSE. The test is classed as cell-based, Staphylococcus epidermidis. The following applies: Gram positive, 16 h incubation; for MIC: Staphylococcus epidermidis, MRSE, read-out: MIC (μg/mL) MRSE. On the procedure: (§1) Minimum inhibitory concentrations (MICs) assay.^2
(§2) All compounds were tested against six different bacteria strains: methicillin-resistant S. aureus (MRSA, ATCC 33591), E. coli (ATCC 25922), methicillin-resistant S. epidermidis (MRSE, RP62A), K. pneumoniae (ATCC 13383), vancomycin-resistant Enterococcus faecalis (VREF, ATCC 700802), P. aeruginosa (ATCC 27853). One colony of each bacteria was inoculated in 4 mL TSB buffer at 37° C. overnight, which was then diluted 100 times, and the bacteria were allowed to grow to the mid-logarithmic phase. 50 μL hydantoin compounds in 2-fold serial dilution of TSB were added in the 96-well plate, then 50 μL diluted bacterial in TSB medium (1×10^6 CFU/mL) was added to each well. After 16 h of incubation at 37° C., the absorption at 600 nm wavelength on a Biotek Synergy HT microtiter plate reader was recorded. Minimum inhibitory concentrations were determined as the lowest concentrations that inhibited bacteria growth completely.

The subject of test [2] is vancomycin-resistant Enterococcus faecalis (VREF, ATCC 700802). Kind of test: Minimum inhibitory concentration (MIC) assay, VREF. The test is classed as cell-based. To be noted: 16 h incubation; for MIC: Enterococcus faecalis, ATCC700802, Gram positive, read-out: MIC (μg/mL) VREF; for MIC (μg/mL) VREF: Gram positive. On the procedure:
as §1, §2

In the next test the test system is E. coli (ATCC 25922). Kind of test: Minimum inhibitory concentration (MIC) assay, E. coli. The test is classed as cell-based, Escherichia coli. The following applies: 16 h incubation; for MIC: Escherichia coli, ATCC25922, Gram negative, read-out: MIC (μg/mL) E. coli; for MIC (μg/mL) E. coli: Gram negative. On the procedure:
as §1, §2

Test [3] has as its system panel of Gram-positive and Gram-negative bacteria. Kind of test: Antimicrobial activity against the whole panel of bacteria. The test is classed as cell-based. To be noted: for antimicrobial activity across the tested bacterial strains: all tested strains; for antibacterial activity of compounds with HPLC RT values less than 26 min: statement relating activity to retention time. On the procedure:
as §1, §2

Test [4] relates to P. aeruginosa (ATCC 27853). In words: Minimum inhibitory concentration (MIC) assay, P. aeruginosa. The test is classed as cell-based, Pseudomonas aeruginosa. To be noted: Gram negative, ATCC 27853, 16 h incubation; for MIC: Pseudomonas aeruginosa, ATCC27853, read-out: MIC (μg/mL) P.A. The method, then: as §1, §2
The subject of test [5] is K. pneumoniae (ATCC 13383). Kind of test: Minimum inhibitory concentration (MIC) assay, K. pneumoniae. The test is classed as cell-based, Klebsiella pneumoniae. The following applies: 16 h incubation; for MIC: Klebsiella pneumoniae, ATCC13383, Gram negative, read-out: MIC (μg/mL) K.P.; for MIC (μg/mL) K.P.: Gram negative. On the procedure: as §1, §2
Test [6] deals with methicillin-resistant S. aureus (MRSA, ATCC 33591). In words: Minimum inhibitory concentration (MIC) assay, MRSA. The test is classed as cell-based, Staphylococcus aureus. The following applies: Gram positive, ATCC 33591, 16 h incubation; for MIC: Staphylococcus aureus, read-out: MIC (μg/mL) MRSA. On the procedure:
as §1, §2

Turning to `CCCCCCCCCC(=O)N[C@@H](CCCCN)CN1CC(=O)N(CC)C1=O` [Compound 1, (S)—N-(6-amino-1-(3-ethyl-2,4-dioxoimidazolidin-1-yl)hexan-2-yl)decanamide], the MIC (in test [1]; in test [2]; in the test with E. coli (ATCC 25922); in test [4]; in test [5]; in test [6]) was greater than 50 µg/mL each time. Also, the “antimicrobial activity across the tested bacterial strains” value in test [3] is given as “doesn't exhibit any activity”. For the same compound, the “antibacterial activity of compounds with HPLC RT values less than 26 min” value (shortened to “antibacterial activity of compounds”) in test [3] is reported as “no apparent antibacterial activity”.
Consider `CCCCCCCCCCCCCCCC(=O)N[C@@H](CCCCN)CN1CC(=O)N(C23CC4CC(CC(C4)C2)C3)C1=O` [Compound 16, N—((S)-1-(3-((3R,5R,7R)-adamantan-1-yl)-2,4-dioxoimidazolidin-1-yl)-6-aminohexan-2-yl) palmitamide], for which, in test [1], the “MIC (μg/mL) MRSE” value was greater than 50 µg/mL. Further, in test [2], the “MIC (μg/mL) VREF” value is greater than 50 µg/mL. For the same compound, in the test on E. coli (ATCC 25922), the “MIC (μg/mL) E. coli” value was greater than 50 µg/mL. The “MIC (μg/mL) P.A.” value in test [4] was greater than 50 µg/mL. In addition, the “MIC (μg/mL) K.P.” value in test [5] was greater than 50 µg/mL. The “MIC (μg/mL) MRSA” value in test [6] is greater than 50 µg/mL.
As for `CCCCCCCCCCCC(=O)N[C@@H](CCCCN)CN1CC(=O)N(CC)C1=O` [Compound 2, (S)—N-(6-amino-1-(3-ethyl-2,4-dioxoimidazolidin-1-yl)hexan-2-yl)dodecanamide], the MIC in test [1] was greater than 50 µg/mL; in test [2] it was greater than 50 µg/mL; with E. coli (ATCC 25922), 12.5 µg/mL; in test [4] it was greater than 50 µg/mL; in test [5] it was greater than 50 µg/mL; in test [6], greater than 50 µg/mL. In test [3], the “antibacterial activity of compounds” value is given as “no apparent antibacterial activity”.
In the case of `CCCCCCCCCC(=O)N[C@@H](CCCCN)CN1CC(=O)N(C2CCCCC2)C1=O` [Compound 9, (S)—N-(6-amino-1-(3-cyclohexyl-2,4-dioxoimidazolidin-1-yl)hexan-2-yl)decanamide], the MIC in test [1] is greater than 50 µg/mL; in test [2], greater than 50 µg/mL; with E. coli (ATCC 25922), 12.5 µg/mL; in test [4] it was greater than 50 µg/mL; in test [5] it was 25 µg/mL; in test [6], 25 µg/mL. The “antimicrobial activity across the tested bacterial strains” value in test [3] is listed as “starts to show activity toward a few bacterial strains”. For the same compound, the “antibacterial activity of compounds” value in test [3] is “no apparent antibacterial activity”.
`CCCCCCCCCCCCCCCC(=O)N[C@@H](CCCCN)CN1CC(=O)N(c2ccc(OC)cc2)C1=O` [Compound 20, (S)—N-(6-amino-1-(3-(4-methoxyphenyl)-2,4-dioxoimidazolidin-1-yl)hexan-2-yl)palmitamide]: the MIC in test [1] is 6.25 µg/mL; in test [2] it was 6.25 µg/mL; with E. coli (ATCC 25922) it was greater than 50 µg/mL; in test [4] it was greater than 50 µg/mL; in test [5], greater than 50 µg/mL; in test [6], 3.12 µg/mL.
Turning to `CCCCCCCCCCCC(=O)N[C@@H](CCCCN)CN1CC(=O)N(C23CC4CC(CC(C4)C2)C3)C1=O` [Compound 14, N—((S)-1-(3-((3R,5R,7R)-adamantan-1-yl)-2,4-dioxoimidazolidin-1-yl)-6-aminohexan-2-yl) dodecanamide], the “MIC (μg/mL) MRSE” value in test [1] turned out to be 6.25 µg/mL. For the same compound, the “MIC (μg/mL) VREF” value in test [2] worked out at 6.25 µg/mL. Further, the “MIC (μg/mL) E. coli” value in the test on E. coli (ATCC 25922) was 12.5 µg/mL. Besides, the “MIC (μg/mL) P.A.” value in test [4] is greater than 50 µg/mL. Further, the “MIC (μg/mL) K.P.” value in test [5] was greater than 50 µg/mL. The “MIC (μg/mL) MRSA” value in test [6] amounted to 6.25 µg/mL.
Regarding `CCCCCCCCCCCCCC(=O)N[C@@H](CCCCN)CN1CC(=O)N(c2cccc(Cl)c2)C1=O` [Compound 23, (S)—N-(6-amino-1-(3-(3-chlorophenyl)-2,4-dioxoimidazolidin-1-yl)hexan-2-yl)tetradecanamide], the MIC was 12.5 µg/mL in test [1]; 12.5 µg/mL in test [2]; greater than 50 µg/mL in the test on E. coli (ATCC 25922); greater than 50 µg/mL in test [4]; greater than 50 µg/mL in test [5]; 12.5 µg/mL in test [6].
Turning to `CCCCCCCCCCCCCCCC(=O)N[C@@H](CCCCN)CN1CC(=O)N(CCCC)C1=O` [Compound 8, (S)—N-(6-amino-1-(3-butyl-2,4-dioxoimidazolidin-1-yl)hexan-2-yl)palmitamide], the MIC in test [1] is 6.25 µg/mL; in test [2] it was 6.25 µg/mL; with E. coli (ATCC 25922) it was greater than 50 µg/mL; in test [4] it was greater than 50 µg/mL; in test [5], greater than 50 µg/mL; in test [6] it was 6.25 µg/mL.
Turning to `CCCCCCCCCCCCCC(=O)N[C@@H](CCCCN)CN1CC(=O)N(C2CCCCC2)C1=O` [Compound 11, (S)—N-(6-amino-1-(3-cyclohexyl-2,4-dioxoimidazolidin-1-yl)hexan-2-yl)tetradecanamide], the MIC in test [1] was 6.25 µg/mL; in test [2], 6.25 µg/mL; in the test with E. coli (ATCC 25922) it was 12.5 µg/mL; in test [4] it was greater than 50 µg/mL; in test [5] it was 6.25 µg/mL; in test [6], 3.12 µg/mL.
Take `CCCCCCCCCC(=O)N[C@@H](CCCCN)CN1CC(=O)N(CCCC)C1=O` [Compound 5, (S)—N-(6-amino-1-(3-butyl-2,4-dioxoimidazolidin-1-yl)hexan-2-yl)decanamide]: the MIC (in test [1]; in test [2]; with E. coli (ATCC 25922); in test [4]; in test [5]; in test [6]) was greater than 50 µg/mL throughout. Besides, the “antimicrobial activity across the tested bacterial strains” value in test [3] was “doesn't have any antimicrobial activity”. The “antibacterial activity of compounds” value in test [3] is “no apparent antibacterial activity”.
For the compound `CCCCCCCCCCCCCC(=O)N[C@@H](CCCCN)CN1CC(=O)N(C23CC4CC(CC(C4)C2)C3)C1=O` [Compound 15, N—((S)-1-(3-((3R,5R,7R)-adamantan-1-yl)-2,4-dioxoimidazolidin-1-yl)-6-aminohexan-2-yl) tetradecanamide], in test [1], the “MIC (μg/mL) MRSE” value worked out at 3.15 µg/mL. For the same compound, the “MIC (μg/mL) VREF” value in test [2] came to 6.25 µg/mL. Also, the “MIC (μg/mL) E. coli” value with E. coli (ATCC 25922) is greater than 50 µg/mL. Also, the “MIC (μg/mL) P.A.” value in test [4] was greater than 50 µg/mL. Moreover, the “MIC (μg/mL) K.P.” value in test [5] is greater than 50 µg/mL. For the same compound, the “MIC (μg/mL) MRSA” value in test [6] turned out to be 3.12 µg/mL.
As for `CCCCCCCCCCCCCCCC(=O)N[C@@H](CCCCN)CN1CC(=O)N(C2CCCCC2)C1=O` [Compound 12, (S)—N-(6-amino-1-(3-cyclohexyl-2,4-dioxoimidazolidin-1-yl)hexan-2-yl)palmitamide], the MIC in test [1] was 25 µg/mL; in test [2], 25 µg/mL; with E. coli (ATCC 25922), greater than 50 µg/mL; in test [4], greater than 50 µg/mL; in test [5], greater than 50 µg/mL; in test [6], 3.12 µg/mL.
Take `CCCCCCCCCCCCCCCC(=O)N[C@@H](CCCCN)CN1CC(=O)N(c2cccc(Cl)c2)C1=O` [Compound 24, (S)—N-(6-amino-1-(3-(3-chlorophenyl)-2,4-dioxoimidazolidin-1-yl)hexan-2-yl)palmitamide]: the MIC in test [1] is 12.5 µg/mL; in test [2], 12.5 µg/mL; in the test on E. coli (ATCC 25922), greater than 50 µg/mL; in test [4], greater than 50 µg/mL; in test [5] it was greater than 50 µg/mL; in test [6] it was 12.5 µg/mL.
On to `CCCCCCCCCCCCCC(=O)N[C@@H](CCCCN)CN1CC(=O)N(c2ccc(OC)cc2)C1=O` [Compound 19, (S)—N-(6-amino-1-(3-(4-methoxyphenyl)-2,4-dioxoimidazolidin-1-yl)hexan-2-yl)tetradecanamide], for which the MIC in test [1] is 6.25 µg/mL; in test [2] it was 6.25 µg/mL; with E. coli (ATCC 25922) it was 6.25 µg/mL; in test [4], greater than 50 µg/mL; in test [5], 25 µg/mL; in test [6], 6.25 µg/mL.
Take `CCCCCCCCCCCCCC(=O)N[C@@H](CCCCN)CN1CC(=O)N(CCCC)C1=O` [Compound 7, (S)—N-(6-amino-1-(3-butyl-2,4-dioxoimidazolidin-1-yl)hexan-2-yl)tetradecanamide]: the MIC in test [1] was 6.25 µg/mL; in test [2] it was 6.25 µg/mL; with E. coli (ATCC 25922) it was 6.25 µg/mL; in test [4], greater than 50 µg/mL; in test [5] it was 12.5 µg/mL; in test [6] it was 6.25 µg/mL.
